Source: ChEMBL document CHEMBL1159232, “Bipolal: anti-microalgal compound isolated as a candidate for marine antifouling produced by Bipolaris sp. F5206” (1995)
Values after ≈ are worked out from the molar mass of the structure shown.

System: Trichophyton mentagrophytes
Assay: Antimicrobial activity against Trichophyton mentagrophytes by microbroth dilution method
Assay type: functional

- MIC: 1.58 µg/mL (≈ 3.96 µM)
SMILES: C=C(C=O)[C@]1(O)C[C@@]2(C)C(=CC1=O)C=C[C@H](OC(=O)/C=C/C=C/[C@@H](C)CC)[C@@H]2C
